Where two headings read alike, the source gives them in different places.
System: strains TA98
Format: cell-based
Conditions: for AMES evaluation: strains TA98
Method: Regarding various specimen solutions respectively containing trisazo dyes obtained in Examples 1 to 11 to the present invention and dyes of Comparative Examples 1 to 3, the number of mutant colonies was determined using strains TA98. 2. When the ratio is less than 2, it is "negative" and, when the ratio is more than 2, it is "positive", and the results are shown in Table. 1.

Structure (SMILES) | Ames test: ratio of number of colonies to control (20 μg/plate, with S-9) | Ames test: ratio of number of colonies to control (20 μg/plate, without S-9) | Ames test: ratio of number of colonies to control (78 μg/plate, with S-9) | Ames test: ratio of number of colonies to control (78 μg/plate, without S-9) | Ames test: ratio of number of colonies to control (313 μg/plate, with S-9) | Ames test: ratio of number of colonies to control (313 μg/plate, without S-9) | Ames test: ratio of number of colonies to control (1250 μg/plate, with S-9) | Ames test: ratio of number of colonies to control (1250 μg/plate, without S-9) | Ames test: ratio of number of colonies to control (5000 μg/plate, with S-9) | Ames test: ratio of number of colonies to control (5000 μg/plate, without S-9) | AMES evaluation
Nc1ccc(N=Nc2ccc(Oc3cccc(Oc4ccc(N=Nc5c(S(=O)(=O)O)cc6cc(S(=O)(=O)O)c(N=Nc7ccccc7)c(O)c6c5N)cc4)c3)cc2)c(O)c1 [Ex. 1] | 1.13 | 0.76 | 0.94 | 0.86 | 1.06 | 0.86 | 0.53 | 0.76 | 0.59 | 0.71 | Negative (When the ratio is less than 2, it is "negative")
Nc1c(N=Nc2ccc(Oc3cccc(Oc4ccc(N=Nc5ccc(O)cc5O)cc4)c3)cc2)c(S(=O)(=O)O)cc2cc(S(=O)(=O)O)c(N=Nc3ccccc3)c(O)c12 [Ex. 2] | 1.34 | 1.07 | 1.19 | 1.20 | 1.39 | 1.02 | 1.28 | 1.16 | 1.27 | 1.28 | Negative (When the ratio is less than 2, it is "negative")
CCC(C)c1ccc(N=Nc2c(S(=O)(=O)O)cc3cc(S(=O)(=O)O)c(N=Nc4ccc(Oc5cccc(Oc6ccc(N=Nc7ccc(O)cc7O)cc6)c5)cc4)c(N)c3c2O)cc1 (centres unmarked) [Ex. 3] | 1.32 | 0.76 | 1.79 | 0.86 | 1.59 | 0.86 | 0.76 | 1.10 | 0.56 | 0.95 | Negative (When the ratio is less than 2, it is "negative")
Nc1ccc(N=Nc2ccc(Oc3ccc(Oc4ccc(N=Nc5c(S(=O)(=O)O)cc6cc(S(=O)(=O)O)c(N=Nc7ccccc7)c(O)c6c5N)cc4)cc3)cc2)c(O)c1 [Ex. 4] | 1.04 | 0.88 | 1.23 | 0.79 | 0.99 | 0.96 | 0.88 | 1.15 | 0.90 | 0.92 | Negative (When the ratio is less than 2, it is "negative")
Nc1c(N=Nc2ccc(Oc3ccc(Oc4ccc(N=Nc5ccc(O)cc5O)cc4)cc3)cc2)c(S(=O)(=O)O)cc2cc(S(=O)(=O)O)c(N=Nc3ccccc3)c(O)c12 [Ex. 5] | 0.93 | 0.89 | 1.04 | 0.95 | 0.86 | 0.63 | 1.04 | 0.79 | 0.57 | 0.68 | Negative (When the ratio is less than 2, it is "negative")
CCC(C)c1ccc(N=Nc2c(S(=O)(=O)O)cc3cc(S(=O)(=O)O)c(N=Nc4ccc(Oc5ccc(Oc6ccc(N=Nc7ccc(O)cc7O)cc6)cc5)cc4)c(N)c3c2O)cc1 (centres unmarked) [Ex. 6] | 1.01 | 1.01 | 1.00 | 1.04 | 0.98 | 1.16 | 0.84 | 0.97 | 0.84 | 0.91 | Negative (When the ratio is less than 2, it is "negative")
Cc1ccccc1N=Nc1c(S(=O)(=O)O)cc2cc(S(=O)(=O)O)c(N=Nc3ccc(Oc4ccc(Oc5ccc(N=Nc6ccc(O)cc6O)cc5)cc4)cc3)c(N)c2c1O [Ex. 7] | 0.94 | 0.95 | 0.89 | 1.00 | 1.00 | 0.80 | 1.05 | 0.80 | 1.05 | 1.00 | Negative (When the ratio is less than 2, it is "negative")
Nc1ccc(N=Nc2ccc(Oc3ccc(Oc4ccc(N=Nc5c(S(=O)(=O)O)cc6cc(S(=O)(=O)O)c(N=Nc7ccc(S(=O)(=O)O)cc7)c(O)c6c5N)cc4)cc3)cc2)c(O)c1 [Ex. 8] | 0.94 | 1.05 | 0.92 | 1.08 | 0.92 | 0.93 | 0.93 | 1.03 | 1.03 | 1.12 | Negative (When the ratio is less than 2, it is "negative")
Nc1ccc(N=Nc2ccc(Oc3cccc(Oc4ccc(N=Nc5cc(S(=O)(=O)O)c6cc(S(=O)(=O)O)c(N=Nc7ccccc7)c(O)c6c5N)cc4)c3)cc2)c(O)c1 [Ex. 9] | 1.05 | 0.85 | 1.00 | 0.65 | 1.16 | 0.75 | 1.00 | 0.60 | 0.53 | 1.15 | Negative (When the ratio is less than 2, it is "negative")
Nc1c(N=Nc2ccc(Oc3ccc(Oc4ccc(N=Nc5ccc(O)cc5O)cc4)cc3)cc2)cc(S(=O)(=O)O)c2ccc(N=Nc3ccccc3)c(O)c12 [Ex. 10] | 0.91 | 1.03 | 0.92 | 1.01 | 0.85 | 0.84 | 1.09 | 1.02 | 0.90 | 0.97 | Negative (When the ratio is less than 2, it is "negative")
Nc1ccc2c(O)c(N=Nc3ccccc3)c(S(=O)(=O)O)cc2c1N=Nc1ccc(Oc2ccc(Oc3ccc(N=Nc4ccc(O)cc4O)cc3)cc2)cc1 [Ex. 11] | 1.25 | 0.96 | 1.64 | 1.00 | 1.34 | 0.81 | 0.64 | 1.04 | 1.07 | 1.35 | Negative (When the ratio is less than 2, it is "negative")
Cc1cc(-c2ccc(N=Nc3c(S(=O)(=O)O)cc4cc(S(=O)(=O)O)c(N=Nc5ccccc5)c(O)c4c3N)c(C)c2)ccc1N=Nc1ccc(N)cc1N [compound 1, reference compound] | 1.92 | 0.72 | 2.35 | 0.68 | 2.50 | 0.84 | 1.50 | 0.76 | 0.85 | 0.96 | Positive (when the ratio is more than 2, it is "positive")
Nc1ccc(N=Nc2ccc(S(=O)(=O)c3ccc(N=Nc4c(S(=O)(=O)O)cc5cc(S(=O)(=O)O)c(N=Nc6ccccc6)c(O)c5c4N)cc3)cc2)c(O)c1 [compound 2, reference compound] | 5.26 | 1.10 | 26.3 | 1.52 | 9.11 | 1.29 | 1.23 | 1.38 | 1.61 | 3.38 | Positive (when the ratio is more than 2, it is "positive")

From patent US5336763A, “Trisazo dye and dye composition containing the same” (Orient Chemical Industries, Ltd., priority 1992, dated 1994)
